# Patent US6989377B2, “Treating vitamin D responsive diseases” (priority 1999, dated 2006)
# Marks after values point to notes of the source that are not given here.
# How the values were obtained:
# Format in all cases: in vivo, mouse
# [1] = system: DSS-induced colitis in 129X1/SvJ male mice; assay: Treatment at the first signs of DSS-induced colitis in 129X1/SvJ mice; conditions: 50 ng/d from day 4 of 1% DSS
# Excerpt: The 129×1/SvJ strain is genetically similar to the 129/Ola strain and to the 129/SvPas strain, which is less susceptible to DSS-induced colitis than C3H/HeJ.
# [2] = system: DS-induced colitis in C3H/HeJ male mice; assay: Calcitriol prevention of DS-induced colitis
# Experimental: Fecal hemoglobin was analyzed in the mice to determine bleeding from a breached intestinal barrier. […] Co., Needham Heights, Mass.), the supernatants were decanted into fresh tubes and stored frozen at -20° C. Hemoglobin in the supernatants was analyzed by a method adapted from Saitoh et al., Digestion, 56:67-75, 1995, and Liem et al., Anal. Biochem., 98:388-393, 1979, with rat hemoglobin as standard (Sigma-Aldrich). The supernatants were diluted 1:25 in TBS. […] The reaction was stopped with 100 μL of 2 M phosphoric acid, and the absorbance at 450 nm was measured with an MRX Revelation Microplate Reader (DYNEX Technologies). […] The mice were euthanized with an i.p. injection of pentobarbital. […] The fixed tissue was embedded in paraffin, sectioned at 6 μm, stained with hematoxylin and eosin, and examined by light microscopy. Scoring was conducted by a veterinary pathologist in blinded fashion. […] Clin. Invest., 98:1010-1020, 1996. The scores were summed to provide a total colitis score for each mouse. […] In particular, age-matched C3H/HeJ male mice were fed a synthetic diet (see Example 6) with or without calcitriol or prednisolone for one week. […] The mice were weighed every 3-4 days thereafter. […] Serum and colon tissue were collected on day 28. Most assays were performed as described in Example 6, and the terminal serum calcium assay was performed as described below. […] The serum was decanted and stored frozen at -20° C. The samples, standards, and buffer blanks (2 μL each) were aliquoted into duplicate wells of a 96-well plate. Calcium reagent working solution (0.25 mL), prepared according to the manufacturer's directions (Sigma Diagnostics, St. Louis, Mo.), was added to each well, and the absorbance at 570 nm was measured.
# [3] = system: DS-induced colitis in C3H/HeJ male mice; assay: Calcitriol prevention of DS-induced colitis; conditions: 50 ng/day in diet from day −7; 1% DS days 0 to 5; terminated day 27
# [4] = system: male C3H/HeJ mice; assay: DS-induced colitis model in mice (weight, mortality, fecal hemoglobin, colon histopathology); conditions: for Colon Histopathology (sum): total colitis score 0 to 16
# Excerpt: This Example describes the generation of a mouse model for dextran sulfate (DS) induced colitis. This DS-induced colitis model was adapted from Okayasu et al. (1990) for use with a synthetic diet. In this Example, male C3H/HeJ mice were used, as these mice are highly susceptible to DS-induced colitis. Initially, mice were given 3.5% DS w/v in acidified water for 5 days, followed by acidified water without DS, and continuously fed a synthetic diet (synthetic diet described in Smith and Hayes, PNAS, USA, 84:5878-5882, 1987). […] These mice shunned the water containing DS, and met their hydration needs by consuming the synthetic diet (which is approximately 60% water by weight). A second group of mice were given 3.5% DS w/v in acidified water for 5 days, followed by acidified water without DS, and continuously fed laboratory chow (Purina mouse chow #5008) as described in Mahler et al., Gastrointest, Liver Physiol., 37:G544-G551 (1996). These mice, consuming an average of 0.57 g DS/mouse, lost weight (controls 26.1±0.7 g; DS group 22.8±0.3 g), and had hemoglobin (Hg) in the stool (controls 0±0 mg Hg/g stool; DS group 11.4 mg Hg/g stool).
# To adapt the DS-induced model for use with the synthetic diet (see Smith and Hayes, 1987), a third group of mice were given graded amounts of DS in acidified water and a synthetic diet for 5 days, followed by acidified water and the synthetic diet without DS. These mice were weighed twice weekly and subjected to various other assays, including: fecal hemoglobin analysis, and histopathologic analysis. The results are presented below in Tables 2 and 3.
# Fecal hemoglobin was analyzed in the mice to determine bleeding from a breached intestinal barrier. Fresh stool samples were collected from individual mice, dried overnight, weighed, and suspended in 0.5 mL of TRIS-buffered saline (TBS; 25 mM TRIS, 0.15 M NaCl, pH 7.6). The stool samples were centrifuged (10,000×g for 10 min) at room temperature in a Micromax centrifuge (International Equip. Co., Needham Heights, Mass.), the supernatants were decanted into fresh tubes and stored frozen at −20° C. Hemoglobin in the supernatants was analyzed by a method adapted from Saitoh et al., Digestion, 56:67-75, 1995, and Liem et al., Anal. Biochem., 98:388-393, 1979, with rat hemoglobin as standard (Sigma-Aldrich). The supernatants were diluted 1:25 in TBS. The assay was done in round-bottom, polystyrene, 96 well microtiterplates (#3555, DYNEX Technologies, Chantily, Va.). The samples, standards, and buffer blanks (20 μL each) were incubated in duplicate for 10 min with 100 μL of a substrate solution made with 9 volumes 3,3′5,5′-tetramethylbenzidine dihydrochloride peroxide solution (Turbo TMB-ELISA, Pierce Chemical Co., Rockford, Ill.) and 1 volume of hydrogen peroxide solution (Stable Peroxide Substrate Buffer, Pierce Chemical Co.). The reaction was stopped with 100 μL of 2 M phosphoric acid, and the absorbance at 450 nm was measured with an MRX Revelation Microplate Reader (DYNEX Technologies). The fecal hemoglobin assay working range was 1 to 100 μg/mL sample.
# The mice were euthanized with an i.p. injection of pentobarbital. The cecal and rectal GI tract segments were collected, cut longitudinally, flushed with 10% neutral-buffered formalin, arranged in a spiral pattern in a cassette, and fixed in formalin. The fixed tissue was embedded in paraffin, sectioned at 6 μm, stained with hematoxylin and eosin, and examined by light microscopy. Scoring was conducted by a veterinary pathologist in blinded fashion. Each colon segment (proximal, medial, and distal colon, and rectum) was given a score from 0 to 4, based on the criteria described by Berg et al., J. Clin. Invest., 98:1010-1020, 1996. The scores were summed to provide a total colitis score for each mouse. The total colitis score could range from 0 (no pathology in any segment) to 16 (grade 4 lesions in all colon segments).
# [5] = 1% DS in drinking water and synthetic diet, days 0 to 5
# [6] = 1.5% DS in drinking water and synthetic diet, days 0 to 5
# [7] = 2.0% DS in drinking water and synthetic diet, days 0 to 5
# [8] = 3.0% DS in drinking water, laboratory chow
compound,measurement,setting,value
"C[C@]12C=CC(=O)C=C1CC[C@@H]1[C@@H]2[C@@H](O)C[C@@]2(C)[C@H]1CC[C@]2(O)C(=O)CO [Prednisolone, prednisolone]","Colon Histopathology, Distal colon",[1],2.0 ± 0.3
same,"Colon Histopathology, Middle colon",[1],0.2 ± 0.3
same,"Colon Histopathology, Rectum + anus",[1],0.8 ± 1.1
same,"Colon histopathology, Proximal colon",[1],0.7 ± 0.4
same,"Colon histopathology, Sum",[1],3.7 ± 1.3
same,Peak fecal hemoglobin,"[1]; 1 cycle, terminated 21 days later",0.4 ± 0.6 mg/g
same,Terminal Serum Ca,[1]; terminated 21 days later,8.3 ± 1.3 mg/dL
same,Terminal weight,[1]; terminated 21 days later,26.5 ± 02.0 g
same,Peak Hg in Stool,"[2]; 50 ng/day in diet from day −7, 1% DS days 0 to 5",12.3 ± 10.0 mg/g
same,Terminal serum Ca++,"[2]; 50 ng/day in diet from day −7, 1% DS days 0 to 5, terminated day 27",10.5 ± 1.2 mg/dL
same,"Colon Histopathology, Distal colon","[2]; 50 ng/day, 1% DS, score 0 to 4",1.1 ± 0.4
same,"Colon histopathology, Medial colon","[2]; 50 ng/day, 1% DS, score 0 to 4",0.3 ± 0.5
same,"Colon histopathology, Proximal colon","[2]; 50 ng/day, 1% DS, score 0 to 4",1.0 ± 0
same,"Colon histopathology, Rectum","[2]; 50 ng/day, 1% DS, score 0 to 4",2.9 ± 1.1
same,"Colon histopathology, Sum","[2]; 50 ng/day, 1% DS, total score 0 to 16",5.3 ± 1.4
same,Terminal weight,[3],29.4 ± 1.4 g
dextran sulfate [DS],"Weight change (%, day 0-11)","[4]; 1% DS in acidified drinking water and synthetic diet, days 0 to 5",2.1 ± 0.9%
same,Mortality (%),[4]; [5],0%
same,Peak Hg in Stool,[4]; [5],1.8 mg/g
same,Colon Histopathology (sum),[4]; 1% DS in drinking water and synthetic diet,6.3 ± 3.5
same,Mortality (%),[4]; [6],66%
same,Peak Hg in Stool,[4]; [6],16.7 mg/g
same,"Weight change (%, day 0-11)",[4]; [6],−12.4 ± 0.7%
same,Colon Histopathology (sum),[4]; 1.5% DS in drinking water and synthetic diet,6.5
same,Mortality (%),[4]; [7],100%
same,Peak Hg in Stool,[4]; [7],31.7 mg/g
same,"Weight change (%, day 0-11)","[4]; 2.0% DS in drinking water and synthetic diet, weight change day 0 to 6, when mortality reached 100%",−17.5 ± 0.2^b %
same,Mortality (%),[4]; [8],0%
same,Peak Hg in Stool,[4]; [8],11.4 mg/g
same,"Weight change (%, day 0-11)",[4]; [8],−5.4%
same,Colon Histopathology (sum),[4]; [8],9.5 ± 0.9
same,Hemoglobin (Hg) in the stool,"[4]; 3.5% DS w/v in acidified water for 5 days, laboratory chow",11.4 mg Hg/g stool
same,Body weight,"[4]; 3.5% DS w/v in acidified water for 5 days, laboratory chow, controls 26.1±0.7 g",22.8 ± 0.3 g
same,"Signs of colitis (diarrhea, blood in the stool, weight loss)","[4]; 3.5% DS w/v in acidified water for 5 days, synthetic diet (mice shunned the DS water)",no signs of colitis
